Consider 3 compounds from patent US20070122830A1, “Prohibitin-directed diagnostics and therapeutics for cancer and chemotherapeutic drug resistance” (Aurelium BioPharma Inc., priority 2005, published 2007).

Where two headings read alike, the source gives them in different places.

What all share (assay type): cell-based, human
In assay [1] the test system is MCF-7 Breast Cancer Cell Line. Briefly: MTT cytotoxicity assay, transfected MCF-7 cells plus chemotherapeutic drug. As to the method: (§1) For a typical siRNA transfection, 1 nmole of the annealed siRNA duplex was mixed with 1.4 ml of Opti-MEM reagent (Invitrogen). In another tube, […] of Oligofectamine reagent (Invitrogen, Carlsbad, Calif.) was mixed with […] of Opti-MEM. The two solutions were combined and mixed gently by inversion and incubated for 20 min. at RT. The resulting solution was added to the cultured cells drop by drop in a 10 cm dish (cells are approximately 40-50% confluent). The next day the transfected cells were trypsinized and seeded in 6 or 96-well plates and further incubated for the indicated amount of time (assay dependent) before further analysis.
(§2) Cell survival was determined using the MTT cytotoxicity assay (see, e.g., Tokuyama et al. (2005) Anticancer Res. 25(1A): 17-22). RNA-transfected cells were seeded in triplicate into 96-well plates at 5×10^3 cells/well 48 hrs post-transfection. The cells were incubated for an additional 16 to 24 hrs before they were exposed to increasing concentrations of cytotoxic drugs. Doxorubicin (adriamycin), cisplatinum, taxol, vinblastin, vincristin, and mitoxantrone were all purchased from Sigma Corp. (St. Louis, Mo.). […] Appropriate dilutions were made in the respective media for each cell line. Following addition of drugs, incubation was continued for an additional 72 hrs. […] of MTT dye (5 mg/ml) were added into each well and the plate was further incubated at 37° C. for 4 hrs. The dye was solubilized with 10% Triton X-100, 0.01 N HCl and further incubated at 37° C. in the dark for 30 min. Cell viability was determined by measure of absorption at 570 nm in a Wallac multiwell plate reader (PerkinElmer, Inc., Boston, Mass.). The averages of triplicate wells were plotted using the Prism software (GraphPad Software, Inc., San Diego, Calif.).
Cell survival was determined as described in Example 3 above.
A general note: Tetrazolium assays rely on reduction of a dye to a coloured formazan, in cell work by metabolically active cells.

Assay [2] concerns MDA Breast Cancer Cell Line. Briefly: MTT cytotoxicity assay, transfected MDA cells plus chemotherapeutic drug. As to conditions: for IC50: Homo sapiens; for IC50 / fold change of EC50, Prohibitin vs Control / EC50: MDA cells; for EC50: Table 5 experiment. As to the method: as §1
as §2, with “RNA-transfected” for “Cell survival was determined using the MTT cytotoxicity assay (see, e.g., Tokuyama et al. (2005) Anticancer Res. 25(1A): 17-22). RNA-transfected”, “drugs.” for “drugs. Doxorubicin (adriamycin), cisplatinum, taxol, vinblastin, vincristin, and mitoxantrone were all purchased from Sigma Corp. (St. Louis, Mo.).”

Assay [3] has as its system SKOV3 Ovarian Cancer Cell Line. Kind of assay: MTT cytotoxicity assay, transfected SKOV3 cells plus chemotherapeutic drug. As to conditions: for IC50: Homo sapiens, SK-OV-3, SKOV3 cells, mock-transfected control, read-out: EC50, Control; for EC50: prohibitin (siRNA) transfected, read-out: EC50, Prohibitin. Here is the method:
as §1
as §2, with “RNA-transfected” for “Cell survival was determined using the MTT cytotoxicity assay (see, e.g., Tokuyama et al. (2005) Anticancer Res. 25(1A): 17-22). RNA-transfected”, “drugs.” for “drugs. Doxorubicin (adriamycin), cisplatinum, taxol, vinblastin, vincristin, and mitoxantrone were all purchased from Sigma Corp. (St. Louis, Mo.).”
Each table summarizes the results of an individual experiment performed in triplicate.

For orientation: EC50 means the concentration needed to bring the measured effect to its halfway point. Regarding `CC(=O)O[C@@]12CO[C@@H]1C[C@H](O)[C@@]1(C)C(=O)[C@H](O)C3=C(C)[C@@H](OC(=O)[C@H](O)[C@@H](NC(=O)OC(C)(C)C)c4ccccc4)C[C@@](O)([C@@H](OC(=O)c4ccccc4)[C@H]21)C3(C)C` [Docetaxel], in assay [1] (MCF-7, FIGS. 15A-15H), the “sensitivity to drug of prohibitin siRNA treated cells” value is listed as “more sensitive”. For the same compound, the concentration for a half-maximal effect (EC50) in assay [1] (MCF-7 cells, prohibitin (siRNA) transfected, Table 9, read-out: EC50, Prohibitin) is 0.00534 µM. The “fold change of EC50, Prohibitin vs Control” value in assay [1] (MCF-7 cells, Table 9, direction IS/IR in same cell (E42)) is 13.8 x.

For `S=P(N1CC1)(N1CC1)N1CC1` [Thiotepa], the IC50 in assay [2] (mock-transfected control, Table 3 experiment, read-out: EC50, Control) was found to be 600 µM; in assay [2] (mock-transfected control, Table 4 experiment, read-out: EC50, Control), 510 µM; in assay [2] (mock-transfected control, Table 6 experiment, read-out: EC50, Control) it was 628 µM; in assay [2] (mock-transfected control, Table 7 experiment, read-out: EC50, Control), 146 µM; in assay [2] (mock-transfected control, Table 8 experiment, read-out: EC50, Control) it was 159 µM; in assay [2] (prohibitin (siRNA) transfected, Table 3 experiment, read-out: EC50, Prohibitin) it was 475 µM. Besides, the IC50 came out at 291 µM in assay [2] (prohibitin (siRNA) transfected, Table 4 experiment, read-out: EC50, Prohibitin); 527 µM in assay [2] (prohibitin (siRNA) transfected, Table 6 experiment, read-out: EC50, Prohibitin); 97.1 µM in assay [2] (prohibitin (siRNA) transfected, Table 7 experiment, read-out: EC50, Prohibitin); 164 µM in assay [2] (prohibitin (siRNA) transfected, Table 8 experiment, read-out: EC50, Prohibitin); 35 µM in assay [3] (Table 10 experiment); 16.5 µM in assay [3] (Table 11 experiment). For the same compound, the “fold change of EC50, Prohibitin vs Control” value came out at 1.3 x in assay [2] (Table 3 experiment, direction IS/IR in same cell (E6)); 1.7 x in assay [2] (Table 4 experiment, direction IS/IR in same cell (E12)); 1.2 x in assay [2] (Table 6 experiment, direction IS/IR in same cell (E24)); 1.5 x in assay [2] (Table 7 experiment, direction IS/IR in same cell (E30)); 1.2 x in assay [3] (SKOV3 cells, Table 11 experiment, direction IS/IR in same cell (E54)). Moreover, the “sensitivity to drug of prohibitin siRNA treated cells compared to mock-treated cells” value in assay [2] (MDA, FIG. 9A-9H) was “increased sensitivity”. The “sensitivity to drug of prohibitin siRNA treated cells compared to controls” value in assay [2] (MDA, FIGS. 10A-10H) was “more sensitive”. In addition, the “sensitivity to drug of prohibitin siRNA treated cells compared to mock controls” value is reported as “increased sensitivity” in assay [2] (MDA, FIGS. 12A-12D) and “increased the sensitivity” in assay [2] (MDA, FIGS. 13A-13H). In addition, the concentration for a half-maximal effect (EC50) in assay [3] (SKOV3 cells, Table 10 experiment) came out at 24.9 µM; in assay [3] (SKOV3 cells, Table 11 experiment), 13.9 µM.

Consider `CC[C@]1(O)C[C@@H]2CN(CCc3c([nH]c4ccccc34)[C@@](C(=O)OC)(c3cc4c(cc3OC)N(C)[C@H]3[C@@](O)(C(=O)OC)[C@H](OC(C)=O)[C@]5(CC)C=CCN6CC[C@]43[C@@H]65)C2)C1` [Vinblastin], for which the EC50 is 0.157 µM in assay [2] (mock-transfected control, read-out: EC50, Control) and 2.55 µM in assay [2] (prohibitin (siRNA) transfected, read-out: EC50, Prohibitin).
